Results: patent publication US20130289071A1, “TETRAZOLYL-TETRAHYDROPYRIDINE COMPOUNDS FOR INFLAMMATION AND IMMUNE-RELATED USES” (Synta Pharmaceuticals Corp., priority 2010, published 2013)

Assays:
[1] = target: T1, CRAC ion channels (ICRAC current), RBL-2H3 cells (Rattus norvegicus, UniProt Q5M848); assay: Automated patch clamp (Qpatch) inhibition of ICRAC current in RBL-2H3 cells; type: cell-based; conditions: 100 nM compound, % ICRAC inhibition
T1 construct: endogenous in cells; host or cells: RBL-2H3 (rat basophilic leukemia) cells
Experimental: Automated patch clamp experiments are conducted with the QPatch 16 (Sophion Bioscience, Ballerup, Denmark) at room temperature (21-25° C.). Immediately following the establishment of giga-seal whole-cell configuration, the cells membrane potential is clamped at 0 mV. Voltage ramps of 50 ms duration spanning the voltage range of −100 to +100 mV are then stimulated at a rate of 0.33 Hz. Currents are filtered at 2.9 kHz and digitized at 200 μs intervals. Capacitive currents and series resistance are determined and corrected before each voltage ramp using the automatic capacitance compensation.
RBL-2H3 are grown in DMEM media supplemented with 10% fetal bovine serum, penicillin 100 U/ml and streptomycin […] in an atmosphere of 95% air/5% CO2. Cells are grown to confluence in 175 cm^2 tissue culture flask. On the experimental day, cells harvested with 0.25% trypsin/0.02% EDTA and resuspended in extracellular solution at density of 5×10^6 cells/ml.
The intracellular solution contains Cs-Glutamate 90 mM; NaCl 8 mM; MgCl2 3 mM; CsCl 20 mM; CsBAPTA 20 mM; HEPES 10 mM; InsP3 0.02 mM; pH=7.2 adjusted with CsOH.
The extracellular solution contains NMDGCl 120 mM; KCl 5.4 mM; CsCl 10 mM; CaCl2 10 mM; MgCl2 1 mM; HEPES 10 mM; Glucose 5.5 mM; at pH=7.4 adjusted with HCl.
ICRAC currents are measured using 50 msec voltage ramps between −100 mV to +100 mV. The voltage ramps are stimulated every 3 seconds for at least 570 seconds. The maximum ICRAC current is allowed to develop for at least 135 seconds. Compounds diluted in extracellular solutions are then applied twice, 30 seconds apart. After incubating the cells with compound for 435 seconds, a reference solution is applied at the end of the experiment. The reference solution is a Ca^2+ free extracellular solution.
Off-line analysis with the Qpatch software is used to plot the current value at −80 mV for each ramp trace against time. The resulting current versus time data is then exported into a Microsoft Excel spreadsheet. The ICRAC membrane currents are separated from the cells basal background currents by either subtracting out the average membrane current values during the first 1-3 traces, or the average membrane current values obtained with the reference solution at the end of the experiment. The % ICRAC inhibition in each cell is calculated by comparing the amount of current just prior to the first compound addition to the amount of current after the cells has been perfused with the compound for at least 400 seconds.

IL-2 production = assay: Inhibition of IL-2 production (Jurkat/PHA/1% FBS, ELISA); type: cell-based; conditions: Homo sapiens, Jurkat, 20 h, Jurkat cells, PHA 2.5 μg/mL
Experimental: JurkaT-cells were placed in a 96 well plate (0.5 million cells per well in 1% FBS medium), and then a test compound of this invention was added at different concentrations. After 10 minutes, the cells were activated with PHA (final concentration 2.5 μg/mL) and incubated for 20 hours at 37° C. under 5% CO2. The final volume was 200 μL. Following incubation, the cells were centrifuged, and the supernatants collected and stored at −70° C. prior to assaying for IL-2 production. A commercial ELISA kit (IL-2 Eli-pair, Diaclone Research, Besancon, France) was used to detect production of IL-2, from which dose response curves were obtained. The IC50 value was calculated as the concentration at which 50% of maximum IL-2 production after stimulation was inhibited versus a non-stimulation control.

T1 sequence (Q5M848 whole entry): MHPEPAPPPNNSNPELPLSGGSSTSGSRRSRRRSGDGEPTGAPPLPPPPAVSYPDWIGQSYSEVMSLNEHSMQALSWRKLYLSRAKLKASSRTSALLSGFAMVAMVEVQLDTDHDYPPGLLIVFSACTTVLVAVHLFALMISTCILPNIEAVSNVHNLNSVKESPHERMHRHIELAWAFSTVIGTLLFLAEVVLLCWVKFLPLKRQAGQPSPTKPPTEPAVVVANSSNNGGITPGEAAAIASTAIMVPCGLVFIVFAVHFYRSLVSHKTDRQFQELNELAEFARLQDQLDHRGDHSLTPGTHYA

For `CC1=C(c2ccc(NC(=O)c3ccncc3Cl)cc2)CN(c2nnn(C)n2)CC1` [Compound 15], the inhibition at 0.1 µM [1] was 53%.
Work on `Cn1nnc(N2CCC(C3CC3)=C(c3cnc(NC(=O)c4c(F)cccc4F)cn3)C2)n1` [Compound 40] yielded an IC50 (IL-2 production) of 53 nM and an inhibition at 0.1 µM [1] of 54%.
`Cc1ccncc1C(=O)Nc1ccc(C2=C(Cl)CCN(c3nnn(C)n3)C2)cc1` [Compound 45] gave an IC50 (IL-2 production) of 59 nM and an inhibition at 0.1 µM [1] of 60%.
With `CC1=C(c2ccc(NC(=O)c3c(C)cccc3Cl)cc2)CN(c2nnn(C)n2)CC1` [Compound 31] the inhibition at 0.1 µM [1] was 72%.
`CC1=C(c2cnc(NC(=O)c3ccccc3F)cn2)CN(c2nnn(C)n2)CC1` [Compound 54] gave an IC50 (IL-2 production) of 92 nM and an inhibition at 0.1 µM [1] of 77%.
`CC1=C(c2ccc(NC(=O)c3cnccc3C)cc2)CN(c2nnn(C)n2)CC1` [Compound 47] gave an IC50 (IL-2 production) of 62 nM and an inhibition at 0.1 µM [1] of 70%.
Work on `CCc1c(F)cncc1C(=O)Nc1ccc(C2=C(C)CCN(c3nnn(C)n3)C2)cc1` [Compound 10] yielded an IC50 (IL-2 production) of 16 nM and an inhibition at 0.1 µM [1] of 87%.
`CC1=C(c2ccc(NC(=O)c3ccncc3C)cc2)CN(c2nnn(C)n2)CC1` [Compound 46] was tested, and the IC50 (IL-2 production) was 60 nM and the inhibition at 0.1 µM [1] was 54%.
`CCC1=C(c2ccc(NC(=O)c3cnccc3C)cc2)CN(c2nnn(C)n2)CC1` [Compound 22] was tested, and the IC50 (IL-2 production) was 29 nM and the inhibition at 0.1 µM [1] was 43%.
`CC1=C(c2cnc(NC(=O)c3cccc(F)c3C)cn2)CN(c2nnn(C)n2)CC1` [Compound 61] gave an IC50 (IL-2 production) of 116 nM and an inhibition at 0.1 µM [1] of 64%.
For `CC1=C(c2ccc(NC(=O)c3ccncc3F)cc2)CN(c2nnn(C)n2)CC1` [Compound 26], the IC50 (IL-2 production) was 37 nM and the inhibition at 0.1 µM [1] was 69%.
Molecule `CC1=C(c2ccc(NC(=O)c3cc(F)ccc3C)nc2)CN(c2nnn(C)n2)CC1` [Compound 29] has an inhibition at 0.1 µM [1] of 85%.
`CC1=C(c2ccc(NC(=O)c3cccc(F)c3C)nc2)CN(c2nnn(C)n2)CC1` [Compound 20] was tested, and the inhibition at 0.1 µM [1] was 65%.
In the case of `Cn1nnc(N2CCC(C3CC3)=C(c3ccc(NC(=O)c4c(F)cccc4F)cc3)C2)n1` [Compound 9], the IC50 (IL-2 production) is reported as 15 nM and the inhibition at 0.1 µM [1] is reported as 67%.
`Cn1nnc(N2CCC(C3CC3)=C(c3cnc(NC(=O)c4cccc(F)c4F)cn3)C2)n1` [Compound 39] showed an IC50 (IL-2 production) of 51 nM and an inhibition at 0.1 µM [1] of 69%.
`CC1=C(c2ccc(NC(=O)c3cccc(F)c3C)cc2)CN(c2nnn(C)n2)CC1` [Compound 38] gave an IC50 (IL-2 production) of 51 nM and an inhibition at 0.1 µM [1] of 48%.
`CCn1nnc(N2CCC(C)=C(c3cnc(NC(=O)c4c(F)cccc4Cl)cn3)C2)n1` [Compound 23] gave an inhibition at 0.1 µM [1] of 81%.
`CCn1nnc(N2CCC(C)=C(c3ccc(NC(=O)c4cnccc4C)cc3)C2)n1` [Compound 55] gave an IC50 (IL-2 production) of 96 nM.
For `CC1=C(c2ccc(NC(=O)c3cnc(C)cc3C)cc2)CN(c2nnn(C)n2)CC1` [Compound 69], the IC50 (IL-2 production) was 219 nM.
Work on `CC1=C(c2ccc(NC(=O)c3cccc(F)c3Cl)cc2)CN(c2nnn(C)n2)CC1` [Compound 16] yielded an inhibition at 0.1 µM [1] of 69%.
`CC1=C(c2ccc(C(=O)Nc3c(F)cccc3F)cc2)CN(c2nnn(C)n2)CC1` [Compound 41] showed an IC50 (IL-2 production) of 54 nM and an inhibition at 0.1 µM [1] of 60%.
With `CCC1=C(c2ccc(NC(=O)c3cccc(F)c3F)cc2)CN(c2nnn(CC)n2)CC1` [Compound 24] the IC50 (IL-2 production) was 33 nM.
Work on `Cc1ccncc1C(=O)Nc1ccc(C2=C(Cl)CCN(c3nnn(C)n3)C2)cn1` [Compound 67] yielded an IC50 (IL-2 production) of 150 nM.
With `CC1=C(c2cnc(NC(=O)c3cc(F)cc(F)c3)cn2)CN(c2nnn(C)n2)CC1` [Compound 75] the IC50 (IL-2 production) was 803 nM.
`Cn1nnc(N2CCC(Cl)=C(c3cnc(NC(=O)c4cc(F)ccc4Cl)cn3)C2)n1` [Compound 36] was tested, and the inhibition at 0.1 µM [1] was 88%.
In the case of `CC1=C(c2ccc(NC(=O)c3ccccc3F)nc2)CN(c2nnn(C)n2)CC1` [Compound 42], the IC50 (IL-2 production) is reported as 55 nM.
Work on `COc1cc(C)c(C(=O)Nc2ccc(C3=C(C)CCN(c4nnn(C)n4)C3)cc2)cn1` [Compound 48] yielded an IC50 (IL-2 production) of 62 nM.
`CC1=C(c2cnc(NC(=O)c3ccc(F)cc3F)cn2)CN(c2nnn(C)n2)CC1` [Compound 58] was tested, and the IC50 (IL-2 production) was 104 nM.
Work on `CC1=C(c2cnc(NC(=O)c3cnccc3C)cn2)CN(c2nnn(C)n2)CC1` [Compound 72] yielded an IC50 (IL-2 production) of 335 nM.
With `CC1=C(c2cnc(NC(=O)c3cccc(F)c3F)cn2)CN(c2nnn(C)n2)CC1` [Compound 37] the IC50 (IL-2 production) was 50 nM and the inhibition at 0.1 µM [1] was 61%.
In the case of `CCn1nnc(N2CCC(C)=C(c3ccc(NC(=O)c4cncnc4C)cc3)C2)n1` [Compound 74], the IC50 (IL-2 production) is reported as 698 nM.
Molecule `CC1=C(c2ccc(NC(=O)c3c(F)cccc3F)cc2)CN(c2nnn(C)n2)CC1` [Compound 11] has an IC50 (IL-2 production) of 17 nM and an inhibition at 0.1 µM [1] of 53%.
`Cn1nnc(N2CCC(Cl)=C(c3ccc(NC(=O)c4c(F)cccc4F)cc3)C2)n1` [Compound 18] was tested, and the inhibition at 0.1 µM [1] was 74%.
Molecule `CCn1nnc(N2CCC(C)=C(c3ccc(NC(=O)c4cncc(F)c4C)cc3)C2)n1` [Compound 27] has an IC50 (IL-2 production) of 37 nM and an inhibition at 0.1 µM [1] of 68%.
With `CC1=C(c2ccc(NC(=O)c3cccc(F)c3F)cc2)CN(c2nnn(C)n2)CC1` [Compound 14] the IC50 (IL-2 production) was 18 nM and the inhibition at 0.1 µM [1] was 74%.
`CC1=C(c2ccc(NC(=O)c3c(F)cccc3F)nc2)CN(c2nnn(C)n2)CC1` [Compound 8] was tested, and the IC50 (IL-2 production) was 15 nM.
Work on `CC1=C(c2ccc(NC(=O)c3ccccc3Cl)nc2)CN(c2nnn(C)n2)CC1` [Compound 51] yielded an IC50 (IL-2 production) of 75 nM.
With `Cn1nnc(N2CCC(Cl)=C(c3ccc(NC(=O)c4c(F)cccc4F)nc3)C2)n1` [Compound 4] the IC50 (IL-2 production) was 12 nM.
For `CC1=C(c2cnc(NC(=O)c3cc(F)ccc3Cl)cn2)CN(c2nnn(C)n2)CC1` [Compound 56], the IC50 (IL-2 production) was 99 nM and the inhibition at 0.1 µM [1] was 84%.
